Data reported in patent US8101624B2, “Quinazoline derivatives” (Aska Pharmaceutical Co., Ltd., priority 2006, dated 2012).

Biological target: T1, human recombinant PDE9 protein (hsPDE9A1) (Homo sapiens, UniProt O76083)
T1 construct: made in house; host or cells: COS-1 cells (transient transfection, pcDNA 3.1(+))
Experiment: Measurement of PDE9-inhibiting activity ([3H]-cGMP hydrolysis)
Assay type: biochemical
Settings: for inhibition at 1 µM: human recombinant PDE9, read-out: Inhibiting Activity PDE9 (percent inhibition at 1 μM)
Protocol: (1) Measurement of PDE9-Inhibiting Activity:
1) Preparation of Human Recombinant PDE9 Protein
Based on the base sequence of hsPDE9A1 registered with GenBank database (accession No.: AF048837), hsPDE9A1 fragment was amplified by polymerase chain reaction under the following conditions, using the following sequence (Amasham Pharmacia Biotech) as the primer and Human Prostate […] cDNA library (CLONTECH) as the template DNA, with Pfu Turbo DNA polymerase ([…]):
PCR condition: [95° C., 5 min]×1 cycle, [(95° C., 1 min), (58° C., 2 min), (72° C., 3 min)]×25 cycles, [72° C., 10 min]×1 cycle
Thus obtained hsPDE9A1 fragment was given a restricted enzymatic treatment with NheI and NotI, and thereafter inserted into pcDNA 3.1(+) expression vector (Invitrogen) to let it serve as a human PDE9 expression vector.
Human PDE9 expression vector-transformed Escherichia coli was mass incubated to produce a large amount of human PDE9 expression vector, which was transiently transfected into COS-1 cells, with LIPOFECTAMINE 2000 Reagent (GIBCO). The cells were homogenized in ice-cooled buffer A (40 mmol/L Tris-HCl, pH7.5, 15 mmol/L benzamidine, 15 mmol/L 2-mercaptoethanol, 1 μg/mL Pepstatin A, 1 μg/mL Leupeptin, 5 mmol/L EDTA) and centrifuged at 4° C., 14,000×g for 10 minutes. The supernatant was isolated to provide human recombinant PDE9 protein solution.
2) Measurement of PDE9-Inhibiting Activity
To 150 μL of buffer B (70 mmol/L Tris-HCl, pH7.5; 16.7 mmol/L MgCl2, 33.3 nmol/L [^3H]-cGMP) solution containing [^3H]-cGMP (specific activity=244.2 GBq/mmol) at a concentration of 33.3 nmol/L, 50 μL of a solution of the compound to be evaluated (formed by dissolving the compound in DMSO and diluting it with distilled water to DMSO concentration of 5%) and 50 μL of the PDE9 protein solution as prepared in the above, as diluted with buffer C (40 mmol/L Tris-HCl, pH7.5, 15 mmol/L benzamidine, 15 mmol/L 2-mercaptoethanol, 1 μg/mL Pepstatin A, 1 μg/mL Leupeptin) by 1,500×, were added under cooling with ice. This mixed solution was incubated at 30° C. for 30 minutes and the enzymatic reaction of PDE9 was terminated by heating the system in boiling water for 90 seconds. Returning the system to room temperature, 50 μL of Snake venom (SIGMA: 1 mg/mL) was added, followed by 10 minutes' incubation at 30° C., to convert the [^3H]-5′-GMP produced in the previous reaction to [^3H]-guanosine. This reaction solution was passed through a column filled with 1 mL of 0.5 mol/L hydrochloric acid-activated cation-exchange resin (Bio-Rad AG50W-X4 resin, mesh size 200-400) and removed of the unreacted substrate ([^3H]-cGMP) by elution with 12 mL of distilled water. Thereafter [^3H]-guanosine was eluted with 3 mL of 3 mol/L aqueous ammonia and its radiation activity was measured with liquid scintillation counter.
PDE9 inhibition of the tested compound can be calculated by the following formula: […]
From the percent inhibition at various concentration levels of each tested compound, its IC50 value against PDE9 can be determined.

T1 sequence (O76083 whole entry): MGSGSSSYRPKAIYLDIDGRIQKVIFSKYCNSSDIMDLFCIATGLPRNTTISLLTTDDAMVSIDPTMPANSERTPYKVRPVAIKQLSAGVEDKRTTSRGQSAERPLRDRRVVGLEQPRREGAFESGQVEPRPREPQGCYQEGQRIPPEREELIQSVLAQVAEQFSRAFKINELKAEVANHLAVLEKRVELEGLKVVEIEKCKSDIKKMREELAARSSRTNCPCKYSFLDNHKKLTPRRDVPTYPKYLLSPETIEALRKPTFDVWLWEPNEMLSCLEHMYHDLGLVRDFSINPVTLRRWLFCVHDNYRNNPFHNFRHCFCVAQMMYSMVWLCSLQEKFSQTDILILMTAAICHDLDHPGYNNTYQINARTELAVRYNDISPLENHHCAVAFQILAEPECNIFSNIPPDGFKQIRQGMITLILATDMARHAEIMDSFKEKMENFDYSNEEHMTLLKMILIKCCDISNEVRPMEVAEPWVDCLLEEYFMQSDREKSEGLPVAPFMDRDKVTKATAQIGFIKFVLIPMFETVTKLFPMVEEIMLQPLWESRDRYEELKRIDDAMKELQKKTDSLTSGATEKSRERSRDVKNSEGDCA

SMILES | inhibition at 1 µM | other results
Cn1c(Cc2cccc(Cl)c2)nc2cc(C(=O)O)ccc2c1=O [Referential Example 1, 2-(3-Chlorobenzyl)-3-methyl-4-oxo-3,4-dihydroquinazoline-7-carboxylic acid, reference compound] |  | PDE9-inhibiting activity relative to that of the compound of Example 1 (ratio of activity versus Example 1): less than 1/100
COc1cccc(Cc2nc3cc(C(=O)O)ccc3c(=O)[nH]2)c1 [Example 5, 2-(3-Methoxybenzyl)-4-oxo-3,4-dihydroquinazoline-7-carboxylic acid] | 41% | 
O=C(O)c1ccc2c(=O)[nH]c(Cc3ccccn3)nc2c1 [Example 6, 4-Oxo-2-(2-pyridylmethyl)-3,4-dihydroquinazoline-7-carboxylic acid] |  | IC50 (human recombinant PDE9 expressed in COS-1 cells, 30° C., 30 minutes): 1360 nM

The next lines start with results.

inhibition at 1 µM | SMILES | other results
30% | O=C(O)c1ccc2c(=O)[nH]c(Cc3cccnc3)nc2c1 [Example 7, 4-Oxo-2-(3-pyridylmethyl)-3,4-dihydroquinazoline-7-carboxylic acid] | 
11% | COc1ccc(Cc2nc3cc(C(=O)O)ccc3c(=O)[nH]2)cc1OC [Example 3, 2-(3,4-Dimethoxybenzyl)-4-oxo-3,4-dihydroquinazoline-7-carboxylic acid] | 
